Test results from patent US20240197869A1, “HYPERACTIVATORS OF MAMMALIAN DENDRITIC CELLS” (Corner Therapeutics, Inc., priority 2021, published 2024).
“Also recorded” adds a separate entry of the source.

Columns and labels:
[1] = Solubility of 22:0 Lyso PC (observation); type: physicochemical
human PBMCs = test: Cytokine secretion (IL-1β, IFNγ, TNFα) by human PBMCs; type: cell-based
Protocol: Isolation of PBMCs from Whole Blood. PBMCs were isolated from whole blood using density gradient centrifugation with Ficoll-Paque PLUS (Cytivia). Whole blood was diluted 1:1 with PBS, layered on top of Ficoll-Paque PLUS and centrifuged at 1000×g for 30 minutes at room temperature. PBMCs were collected, washed twice in PBS, and incubated with Ack lysis buffer (Lonza) to remove any remaining red blood cells.
Cell Culture and Stimulation. […] Cells were plated at 1×10^5 (canine cells) or 1×10^6 (human cells) per well in 96-well flat bottom tissue culture plates. Lyophilized Vaccigrade R848 (Invivogen) was reconstituted and diluted according to manufacturer's recommendations and added to cells at a final concentration of 1 μg/mL.
Quantification of Cytokine Secretion. IL-1β secretion from human PBMCs was assessed using one of the following kits: ELISA MAX Deluxe Set Human IL-1β kit (Biolegend), Invitrogen Human IL-1β kit, or the Lumit™ Human IL-1β Immunoassay (Promega). IFNγ secretion from human PBMCs was assessed using the ELISA MAX Deluxe Set Human IFNγ (Biolegend) and TNFα secretion from human PBMCs was assessed using the Human TNFα Uncoated ELISA kit (Invitrogen). ELISAs were performed according to manufacturer's instructions with the following modifications: i) total sample+buffer volume for incubation was reduced from 100 μL to 50 μL; ii) the top standard was prepared at […], with two-fold dilutions to […]; and iii) sample incubation was completed overnight at 4 C on an orbital shaker. Lumit™ assays were performed according to manufacturer's instructions. IL-1β secretion from canine PBMCs was assessed using the Canine IL-1β/IL-1F2 DuoSet ELISA (R&D) according to manufacturer's instructions with the following modifications: i) total sample+buffer volume for incubation was reduced from 100 μL to 50 μL; ii) sample incubation was completed overnight at 4° C. on an orbital shaker. For all ELISAs, absorbance was measured at 450 nm, with a 570 nm correction, using a Spectramax M5e plate reader (Molecular Devices). For Lumit™ assays, luminescence was measured on all wavelengths using a Spectramax M5e plate reader (Molecular Devices) with an integration time of 500 ms. To determine cytokine concentrations in supernatants, sample concentrations were interpolated using a standard curve via 4PL analysis on GraphPad Prism 9 (GraphPad Software). The interpolated results of samples were then adjusted for any dilutions made to the supernatant.

[2] = test system: human monocyte-derived dendritic cells (moDCs); test: DAMP screen: viability of human moDCs (CellTiter-Glo)
Protocol: Danger-Associated Molecular Pattern (DAMP) Screen. After 6 days of differentiation into moDC, cells were collected and counted. Cells were plated at 100,000 cells/well in R10 media in 96-well flat bottom tissue culture-treated plates. LPS, serotype O55:B5 (Enzo Life Sciences) was added to a final concentration of 1 μg/mL in each well. […] Cells were incubated at 37° C., 5% CO2 for two days. Cell cultures were then used for endpoint analyses.
Endpoint Analyses. After culturing moDCs with PAMPs and DAMPs for two days, supernatant and cell samples were collected for analysis.
Quantification of Cell Viability. Cell viability was assessed by quantifying the presence of ATP as an indicator of metabolically active cells using the CellTiter-Glo Luminescent Cell Viability Assay (Promega). Metabolic activity was assessed following manufacturer's instructions. The CellTiter-Glo reagent was mixed with the cell pellets and remaining supernatant, and transferred to a white, opaque 96-well plate. Luminescence was measured on all wavelengths on a Spectramax iD3 plate reader (Molecular Devices) using an integration time of 500 ms. Percent viability was calculated relative to the control condition of moDCs treated with LPS.

non-human primate PBMCs = test: Cytokine secretion by non-human primate PBMCs (LegendPlex); type: cell-based, cynomolgus macaques
Protocol: Non-human primate PBMC hyperactivation. Whole blood from cynomolgus macaques was diluted with an equal volume of PBS. A solution of 90% Ficoll-Paque PLUS and 10% RPMI was made, and diluted whole blood was overlayed on top of the diluted Ficoll. Cells were centrifuged at 1000 rcf for 30 minutes at room temperature with no brakes. The buffy coat layer was collected and washed twice with PBS. If red blood cell contamination was present, cells were incubated in ACK lysis buffer for 2 minutes before being washed with PBS to remove lysed red blood cells.
Isolated PBMC were plated at 1×10^6 cells/well and cultured with or without hyperactivating stimuli. After 2 days incubation, cells were assessed for viability, and cell culture supernatant was used to measure cytokine output. Commercially available kits such as Biolegend LegendPlex kits were used as directed by manufacturer's protocol to quantify cytokines of interest.
PBMC were obtained from 13 cynomolgus macaques. Each activation condition was tested in triplicate, and the mean value of the triplicate is graphed for the animal sample. Repeated measures one-way ANOVA was used to test for statistical significance followed by Dunnett's multiple comparisons test.

human naïve CD4+ T cells = test: Mixed lymphocyte reaction: polarization of naïve CD4 T cells (flow cytometry); type: cell-based
Protocol: Mixed lymphocyte reaction. Human monocytes were isolated from leukopheresis products using Miltenyi StraightFrom LeukoPak CD14 microbeads as directed by manufacturer. To isolate naïve CD4 T cells, whole blood was diluted with an equal volume of PBS. Diluted blood was layered on top of Ficoll-Paque PLUS solution and spun at 1000 rcf for 20 minutes at room temperature with no brakes. Buffy coat layer was collected, washed, and counted. Miltenyi human naïve CD4 T cell microbead isolation kits were used to isolate cells of interest from the PBMC according to manufacturer's instructions. Collected cells were cryogenically stored in 90% FBS and 10% DMSO.
Monocytes were differentiated into moDC. moDC were counted and plated in U-bottom plates at 2×10^4 cells/well and treated with hyperactivating stimuli or control conditions. After one day of culture, 1×10^5 cells/well naïve CD4 T cells from a different (allogeneic) human donor were thawed and added to the cultures with 100 ng/mL IL-2. Cells were cocultured for 5 days with an IL-2 feed on the third day of coculture. After 5 days, cells were reactivated for four hours using Leukocyte Activation Cocktail with BD GolgiPlug (BD Biosciences). Cells were stained to determine the resulting polarization of activated T cells via flow cytometry. Intracellular staining targets required the use of BD Biosciences Transcription Factor Buffer set to fix and permeabilize cells prior to the intracellular staining step.
Ten moDC donor samples were tested in MLR assay. Staining results were analyzed using FlowJo software, and consistent gating strategies were applied to all samples. Frequency of activated cells was graphed as a percentage of CD4 T cells in each sample. Paired t-tests were used to determine statistical significance.

[3] = lipid combined with R848, 2 days
[4] = 82.5 uM lipid + R848 vs R848 alone, 2 days
[5] = moDC treated with R848 + 22:0 LPC

CCCCCCCCCCCCCCCCCCCCCC(=O)OC[C@@H](O)COP(=O)([O-])OCC[N+](C)(C)C [22:0 LYSO PC, 1-behenoyl-2-hydroxy-sn-glycero-3-phosphocholine]
solubility in aqueous solution (in words) [1]: mostly insoluble in aqueous solution
solubility in alcohols (in words) ([1]; ethanol or methanol): soluble in ethanol or methanol
IL-1β secretion (in words) (human PBMCs; lipid 82.5 μM combined with R848 1 μg/mL, 2 days): elevated; also recorded: comparable or higher
IFNγ secretion, fold change per donor relative to R848 alone (in words) (human PBMCs; [3]): highest fold change per donor; also recorded: comparable or higher
TNFα secretion, fold change per donor relative to R848 alone (in words) (human PBMCs; [3]): highest fold change per donor; also recorded: comparable or higher
Relative Viability (%) ± SD ([2]; 41.3 μM lipid + LPS 1 μg/mL, 2 days, relative to LPS-treated moDCs, Table 1-2): 47.6%
Relative Viability (%) ± SD ([2]; 82.5 μM lipid + LPS 1 μg/mL, 2 days, relative to LPS-treated moDCs, Table 1-1): 14.6%
Relative Viability (%) ± SD ([2]; 82.5 μM lipid + LPS, selected lipids, Table 1-3 (repeats Table 1-1)): 14.6%
cytokine fold changes relative to R848 alone (in words) (non-human primate PBMCs; 41.3 uM lipid + R848): not as markedly increased
IL-1beta output (in words) (non-human primate PBMCs; 82.5 uM lipid + R848 1 μg/mL vs R848 alone, 2 days): increased the IL-1beta output
IFN-beta secretion (in words) (non-human primate PBMCs; [4]): increased
IFN-gamma secretion (in words) (non-human primate PBMCs; [4]): significantly increased
IL-8 secretion (in words) (non-human primate PBMCs; [4]): increased
IL-17a secretion (in words) (non-human primate PBMCs; [4]): increased
IL-23 secretion (in words) (non-human primate PBMCs; [4]): increased
Th2 polarization (Gata3, IL-4) (in words) (human naïve CD4+ T cells; [5]): minimal Th2 polarization occurred
Th17 cells (RORg, IL-17) (in words) (human naïve CD4+ T cells; [5]): not detected
frequency of polyfunctional Th1 cells (IFN-gamma and TNF-alpha) (in words) (human naïve CD4+ T cells; moDC treated with R848 + 22:0 LPC vs R848 alone): increased in frequency
frequency of Th1 cells (in words) (human naïve CD4+ T cells; moDC treated with R848 + 22:0 LPC vs R848 alone, 5 days coculture): increased the frequency of Th1 cells
